Laboratory results reported in patent publication US20230286947A1, “COMPLEMENT FACTOR B INHIBITOR, AND PHARMACEUTICAL COMPOSITION, PREPARATION METHOD AND USE THEREOF” (SHANGHAI MEIYUE BIOTECH DEVELOPMENT CO. LTD, priority 2020, published 2023).

Assays:
[1] = PK experiment of single intragastric administration to rats; format: in vivo; settings: male, Wistar Han, plasma, po, rat, 3 mg/kg, mean
Procedure: Six- to nine-week-old male Wistar han rats (from Shanghai Sippe-Bk Lab Animal Co., Ltd.) were fasted overnight. Each group consisted of 3 rats, and they were given the control compound, the compound of Example 5 and the compound of Example 6, respectively, by intragastric administration at 3 mg/kg at a volume of 10 mL/kg. 0.2 mL of blood was collected from the jugular vein at each time point, anticoagulated with EDTA-K2 and immediately centrifuged at 4000 rpm at 4° C. for 5 min. The supeatant was collected. The samples were cryopreserved in a freezer at −80° C. before analysis. Time points of blood collection: before administration, 5 min 15 min, 30 min, 1 h, 2 h, 4 h, 7 h and 24 h. […] After blood collection at all of the time points was completed, the animals were euthanized. The plasma samples were analyzed by LC-MS/MS. The data were used to calculate kinetic parameters (Tmax, Cmax, T½ and AUC) in the WinNonlin software.

[2] = system: Streptococcus-induced rheumatoid arthritis; experiment: Streptococcus-induced rheumatoid arthritis (RA) model in rats; format: in vivo, Lewis rats; settings: 15 mpk intragastric daily for 25 days, FIG. 3
Procedure: In the experiment, six- to nine-week-old female Lewis rats (Beijing Vital River) were used. Each group consisted of 6 rats, and they were given the cell wall peptidoglycan complexes of Streptococcus and several other species of bacteria by intraperitoneal administration (2-3 mg per rat) on D1, and were given the control compound (15 mpk) and Example 5 (15 mpk) by intragastric administration daily for 25 consecutive days. The arthritis in rats was scored in different phases. The scoring criteria are as follows: Scoring according to the degree of lesion (redness and swelling) was performed on a scale of 0-4 points, with a maximum score of 4 for each limb and a total maximum score of 16 for each animal's limbs. The scoring criteria are as follows: 0 points: no redness and swelling; 1 point: 1-2 red and swollen interphalangeal joints; 2 points: 3-4 red and swollen interphalangeal joints; 3 points: more than 4 red and swollen interphalangeal joints; 4 points: severe redness and swelling in toes or fingers to ankle joints or wrist joints.

[3] = biological target: T1, complement factor B in human serum (Homo sapiens, UniProt P00751); experiment: Complement hemolytic activity assay (rabbit erythrocytes, normal human serum); format: cell-based; settings: for IC50: rabbit erythrocytes, normal human serum, 37° C., read-out: Hemolysis IC50
T1 construct: from tissue; host or cells: normal human serum (NHS)
T1 sequence (P00751 26-764): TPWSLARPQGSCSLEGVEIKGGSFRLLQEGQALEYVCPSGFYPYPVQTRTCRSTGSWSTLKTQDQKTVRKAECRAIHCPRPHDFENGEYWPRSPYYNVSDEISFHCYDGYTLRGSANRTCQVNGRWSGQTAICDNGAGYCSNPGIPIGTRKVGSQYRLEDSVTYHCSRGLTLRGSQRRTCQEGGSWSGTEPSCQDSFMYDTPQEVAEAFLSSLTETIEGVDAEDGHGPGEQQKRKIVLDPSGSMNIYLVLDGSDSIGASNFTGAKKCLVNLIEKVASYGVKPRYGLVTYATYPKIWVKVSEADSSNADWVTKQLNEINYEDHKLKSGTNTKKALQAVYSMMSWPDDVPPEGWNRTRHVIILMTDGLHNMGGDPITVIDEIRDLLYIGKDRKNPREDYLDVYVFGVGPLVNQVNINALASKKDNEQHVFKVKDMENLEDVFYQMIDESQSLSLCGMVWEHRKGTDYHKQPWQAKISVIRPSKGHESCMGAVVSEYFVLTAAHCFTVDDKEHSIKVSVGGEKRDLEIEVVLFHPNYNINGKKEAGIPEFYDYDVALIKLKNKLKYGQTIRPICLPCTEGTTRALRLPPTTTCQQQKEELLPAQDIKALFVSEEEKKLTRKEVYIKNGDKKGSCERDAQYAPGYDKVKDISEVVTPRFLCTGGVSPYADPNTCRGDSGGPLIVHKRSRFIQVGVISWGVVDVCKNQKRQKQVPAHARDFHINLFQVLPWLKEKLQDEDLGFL
Procedure: The hemolysis experiment was carried out by referring to the description in Xuan Yuan et al., Haematologica. […] Prior to the experiment, the optimal concentration of normal human serum (NHS) required to achieve 100% lysis of rabbit erythrocytes (REs) was obtained by titration testing. […] REs (collected from healthy Japanese big-ear white rabbits) freshly suspended in a GVBO buffer comprising 10 mM Mg-EGTA were added to a final concentration of 1×10^8 cells/mL and incubated at 37° C. for 30 min. A GVBO buffer comprising 10 mM Mg-EGTA and comprising NHS and RE but no test compound was used as a positive control group (100% lysis). A GVBO buffer comprising 10 mM Mg-EGTA and comprising inactivated NHS (heated at 56° C. for 30 min or at 65° C. for 5 min) and RE but no test compound was used as a negative control group (0% lysis). The samples were centrifuged at 2000 g for 5 min, and the supernatant was collected. Absorbance at 415 nm (A415) was measured using a microplate reader (Molecular Devices, SpectraMax i3X). IC50 values were calculated from percent hemolysis as a function of test compound concentration by non-linear regression.

Complement factor B = Complement factor B (Homo sapiens, UniProt P00751); experiment: Optical surface plasmon resonance (SPR) binding capacity assay; settings: for Rmax (RU): test compound 500 μM, 25° C., 1:1 binding model; for binding capacity to the target protein compared with the control compound: at a concentration of 500 μM
Complement factor B, sequence (P00751 26-764): as above
Procedure: An SPR experiment was carried out at 25° C. In the experiment, a PBS buffer supplemented with 0.05% (v/v) P20 and 5% DMSO was used as a running buffer, and the analytical instrument Biacore 8K of GE Healthcare was used. A CM7 ship (GE Healthcare) was activated with 400 mM EDC and 100 mM NHS at a flow rate of 30 μL/min for 420 s. […] Then the assay chip was treated with 1 M ethanolamine hydrochloride at a flow rate of 10 μL/min for 300 s for chip blocking. The concentration of the test compound was 500 μM, the binding time was 120 s, and the dissociation time was 300 s. Data analysis was performed using a 1:1 binding model (Biacore Insight Evalution Software, Version 2.0.15.12933).

[4] = Liver microsomal stability experiment (rat); format: in vitro ADME; settings: for half-life at 1 µM: SD, pH 7.4, NADPH, read-out: MMS (rat) T1/2; for half-life at 1 µM / MMS (rat) Remaining (T = 90 min): rat liver microsomes; for liver microsomal stability (in words): statement covers rat, monkey and human liver microsomes (Table 3)
Procedure: (§1) A 0.1 M solution of potassium dihydrogen phosphate in distilled water (comprising 1 mM ethylenediaminetetraacetic acid) was taken. Then the pH was adjusted to 7.4 with the 0.1 M solution of dipotassium phosphate in distilled water (comprising 1 mM ethylenediaminetetraacetic acid).
Rat: SD Rat Liver Microsomes, Cat. No.: LM-DS-02M, RILD Research Institute for Liver Diseases (Shanghai) Co. Ltd.
(§2) A 10 mM solution of each of the control compound and test compounds was prepared in DMSO. Then 10 μL of the solution was added to 190 μL of acetonitrile to form a 0.5 mM mother liquor. 1.5 μL of the 0.5 mM compound mother liquor was measured out, and […] of 20 mg/mL liver microsomes and 479.75 μL of the buffer were added. (The actual preparation amount can be adjusted according to use).
(§3) A 10 mg/mL solution of reduced coenzyme II (NADPH) was prepared in the buffer. A 96-well plate was placed on ice. Wells corresponding to different time points (0, 10, 30, 60 and 90 min, Non-NADPH) were set for each compound. 30 μL of the working solution was added to each well. For 0 min wells, 155 μL of glacial acetonitrile solution (the internal standard concentration was 1 μM) was added first, and after the mixtures were well mixed using a pipet, 15 μL of NADPH (10 mg/mL) was added. Before the reactions were started, the 96-well plate was pre-incubated on a microplate shaker at 37° C. for 5 min. Then 15 μL of NADPH (10 mg/mL) was added to each well to start the metabolic reactions. After the reactions were carried out for 10, 30, 60 and 90 min, 155 μL of glacial acetonitrile solution (the internal standard concentration was 1 μM) was added to the corresponding wells to terminate the reactions. After 90 min, the reaction in the Non-NADPH system was terminated by adding 155 μL of glacial acetonitrile solution (the internal standard concentration was 1 μM). After the reaction was completed, the 96-well plate was shaken on a microplate shaker (600 rpm) for 10 min and then centrifuged at 4° C. at 4000 g for 15 min. 50 μL of the supernatant was added to a new 2 mL 96-well plate, and 300 μL of deionized water was added. The mixture was analyzed on an AB SCIEX ExionLC-Triple Quad 5500 high performance liquid chromatograph-mass spectrometer. The Analyst 1.6.3 software was used.

[5] = Liver microsomal stability experiment (human); format: in vitro ADME; settings: for MMS (human) Remaining (T = 90 min): human liver microsomes; for half-life at 1 µM: pooled liver microsomes, pH 7.4, NADPH, read-out: MMS (human) T1/2
Procedure: as §1
Human – Pooled Human Liver Microsomes (Mongolian), Cat. No.: LM-R-02M, RILD Research Institute for Liver Diseases (Shanghai) Co. Ltd.
as §2, §3

[6] = Liver microsomal stability experiment (monkey); format: in vitro ADME; settings: cynomolgus monkey liver microsomes; for half-life at 1 µM: pH 7.4, NADPH, read-out: MMS (monkey) T1/2
Procedure: as §1
Monkey: Cynomolgus Monkey Liver Microsomes, Cat. No.: LM-SXH-02M, RILD Research Institute for Liver Diseases (Shanghai) Co. Ltd.
as §2, §3

[7] = PK/PD experiment of single intragastric administration to cynomolgus monkeys: plasma concentration; format: in vivo; settings: same dose (3 & 30 mpk), FIG. 1
Procedure: Cynomolgus monkeys were used. Each group consisted of 3 cynomolgus monkeys, and they were given the control compound and the compound of Example 5 (3 & 30 mpk) by intragastric administration. Blood was collected at different time points and analyzed for drug concentration and complement activity. The drug concentration in plasma was determined by LC-MS/MS. The complement activity in serum was determined using a wieslab assay (Svar Life Science AB, COMPL AP330 RUO) kit, Normal Human Serum (Complement Technology, NHS).

Compound `CCO[C@H]1CCN(Cc2c(OC)cc(C)c3[nH]ccc23)[C@H](c2ccc(C(=O)O)cc2)C1` [Control compound, reference compound] has an AUC(0-inf) [1] of 2730 ng·h/mL, an AUC(0-t) [1] of 2530 ng·h/mL and a Cmax [1] of 784 ng/mL. The Tmax [1] was 0.33 h, the half-life [1] was 2.42 h and the arthritis score [2] was “can improve the arthritis score”.

With `COc1cc(C)c2[nH]ccc2c1CN1CCC(C)(F)CC1c1ccc(C(=O)O)cc1` (stereo not shown) [Example 17] the IC50 [3] was 391 nM.

In the case of `COc1cc(C)c2[nH]ccc2c1CN1CCC2(CC1c1ccc(C(=O)O)cc1)CC2(F)F` (stereo not shown) [Example 8], the “Rmax (RU)” value (Complement factor B) is reported as 47.7 RU and the IC50 [3] is reported as 358 nM.

For `COc1cc(C)c2[nH]ccc2c1CN1CC[C@H](OCC2CC2(F)F)C[C@H]1c1ccc(C(=O)O)cc1` (stereo partly shown) [Example 25], the IC50 [3] was 234 nM.

In the case of `COc1cc(C)c2[nH]ccc2c1CN1CCC(C(F)F)CC1c1ccc(C(=O)O)cc1` (stereo not shown) [Example 10], the “Rmax (RU)” value (Complement factor B) is reported as 30.7 RU and the IC50 [3] is reported as 611 nM.

In the case of `COc1cc(C)c2[nH]ccc2c1CN1CC[C@H](OCC2CC2)C[C@H]1c1ccc(C(=O)O)cc1` [Example 5], the half-life at 1 µM [4] is reported as 9.13 h, the “MMS (rat) Remaining (T = 90 min)” value [4] is reported as 89.14% and the “liver microsomal stability (in words)” value [4] is reported as “more significant liver microsomal stability”. The “MMS (human) Remaining (T = 90 min)” value [5] was 91.04%, the half-life at 1 µM [5] was 11.2 h and the AUC(0-inf) [1] was 3280 ng·h/mL. For the same compound, the AUC(0-t) [1] was 3120 ng·h/mL, the Cmax [1] was 1920 ng/mL and the Tmax [1] was 0.25 h. For the same compound, the half-life [1] was 1.58 h, the “MMS (monkey) Remaining (T = 90 min)” value [6] was 93.32% and the half-life at 1 µM [6] was 12.8 h. The “binding capacity to the target protein compared with the control compound” value (Complement factor B) was “significantly better than the control compound”, the “Rmax (RU)” value (Complement factor B) was 274.2 RU and the “mean plasma concentration compared with the control compound” value [7] was “significantly higher mean plasma concentration than the control compound”. The arthritis score [2] was “can improve the arthritis score”, the “effect on arthritis score compared with the control compound” value [2] was “significantly better effect than the control compound” and the “inhibitory activity against complement factor B in human serum compared with the control compound” value ([3]; hemolysis of rabbit erythrocytes) was “significantly better inhibitory activity against complement factor B in human serum than the control compound”. For the same compound, the IC50 [3] was 87.9 nM.

`CCOC1CC(c2ccc(C(=O)O)cc2)N(Cc2c(OC)cc(C)c3[nH]ccc23)C2CC12` (stereo not shown) [Example 23] gave an IC50 [3] of 853 nM.

In the case of `COc1cc(C)c2[nH]ccc2c1CN1CC[C@H](OC(F)(F)F)C[C@H]1c1ccc(C(=O)O)cc1` [Example 7], the “Rmax (RU)” value (Complement factor B) is reported as 21.6 RU and the IC50 [3] is reported as 228 nM.

With `COc1cc(C)c2[nH]ccc2c1CN1CCC2CC2[C@H]1c1ccc(C(=O)O)cc1` (stereo partly shown) [Example 22] the IC50 [3] was 184 nM.

With `COc1cc(C)c2[nH]ccc2c1CN1CCC(C(F)(F)F)CC1c1ccc(C(=O)O)cc1` (stereo not shown) [Example 9] the “Rmax (RU)” value (Complement factor B) was 23.3 RU and the IC50 [3] was 725 nM.

In the case of `COc1cc(C)c2[nH]ccc2c1CN1CC[C@H](OC2CC(F)(F)C2)C[C@H]1c1ccc(C(=O)O)cc1` [Example 16], the IC50 [3] is reported as 188 nM.

In the case of `COc1cc(C)c2[nH]ccc2c1CN1CC[C@H](OCC2CCC2)C[C@H]1c1ccc(C(=O)O)cc1` [Example 6], the half-life at 1 µM [4] is reported as 0.986 h, the “MMS (rat) Remaining (T = 90 min)” value [4] is reported as 33.55% and the “liver microsomal stability (in words)” value [4] is reported as “more significant liver microsomal stability”. For the same compound, the “MMS (human) Remaining (T = 90 min)” value [5] was 74.57%, the half-life at 1 µM [5] was 3.96 h and the AUC(0-inf) [1] was 2260 ng·h/mL. It also gave an AUC(0-t) [1] of 2190 ng·h/mL, a Cmax [1] of 1180 ng/mL and a Tmax [1] of 0.25 h. The half-life [1] was 2.28 h, the “MMS (monkey) Remaining (T = 90 min)” value [6] was 60.37% and the half-life at 1 µM [6] was 2.17 h. The “binding capacity to the target protein compared with the control compound” value (Complement factor B) was “significantly better than the control compound”, the “Rmax (RU)” value (Complement factor B) was 106.5 RU and the IC50 [3] was 217 nM.

Compound `COc1cc(C)c2[nH]ccc2c1CN1CC[C@H](OC2CC2)C[C@H]1c1ccc(C(=O)O)cc1` [Example 3] has an IC50 [3] of 216 nM.

Compound `COc1cc(C)c2[nH]ccc2c1CN1CC[C@H](OCC2CC2)C[C@H]1c1ccc(-c2nn[nH]n2)cc1` [Example 26] has an IC50 [3] of 319 nM.

With `COc1cc(C)c2[nH]ccc2c1CN1CC[C@H](OC2CCC2)C[C@H]1c1ccc(C(=O)O)cc1` [Example 4] the half-life at 1 µM [4] was 3.68 h, the “MMS (rat) Remaining (T = 90 min)” value [4] was 72.23% and the “liver microsomal stability (in words)” value [4] was “more significant liver microsomal stability”. For the same compound, the “MMS (human) Remaining (T = 90 min)” value [5] was 84.79%, the half-life at 1 µM [5] was 6.94 h and the “MMS (monkey) Remaining (T = 90 min)” value [6] was 80.68%. The half-life at 1 µM [6] was 6.07 h, the “Rmax (RU)” value (Complement factor B) was 29.1 RU and the IC50 [3] was 280 nM.
